Experimental data as given in patent publication US11078198B2 (BRISTOL-MYERS SQUIBB COMPANY, priority 2017, dated 2021).

Target: T1, human FXR (Homo sapiens, UniProt Q96RI1)
T1 construct: expressed in transfected cells; host or cells: HEK293 cells stably carrying a 5xGal4-response-element firefly luciferase reporter, transiently transfected with pcDNA3.1-Gal4-FXR
T1 sequence (Q96RI1 262-486 limits assumed): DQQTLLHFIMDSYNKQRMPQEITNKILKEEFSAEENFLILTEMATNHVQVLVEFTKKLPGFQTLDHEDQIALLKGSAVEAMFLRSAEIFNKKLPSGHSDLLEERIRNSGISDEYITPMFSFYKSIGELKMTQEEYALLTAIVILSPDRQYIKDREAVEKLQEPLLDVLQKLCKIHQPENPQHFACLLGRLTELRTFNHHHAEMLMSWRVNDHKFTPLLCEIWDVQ
Experiment: transient human FXR/Gal4-luciferase reporter assay
Type: cell-based
Conditions: Gal4-hFXR transfected HEK293 reporter cells; relative to 8 μM GW-4064
Procedure: A Gal4-hFXR fusion construct reporter system was used as the primary assay to characterize compound activity. A construct including 5 copies of the Gal4 promoter response element upstream of a firefly luciferase reporter cDNA was stably expressed in HEK293 cells. This reporter cell line was maintained in Dulbecco's Modified Eagle's medium (DMEM; Gibco) supplemented with 1% penicillin-streptomycin (P/S) solution, 500 μg/mL Zeocin and 10% charcoal/dextran-treated fetal bovine serum (cs-FBS) at 37° C. in a humidified 5% CO2 atmosphere. Another plasmid was constructed in which the human cytomegalovirus promoter in the pcDNA3.1 vector directs the expression of the cDNA encoding a fusion protein comprised of the DNA binding domain from the Gal4 transcription factor fused to the ligand binding domain from human FXR.
The day prior to transfection, the reporter cells in culture are detached from the plate with trypsin and plated into a T75 flask at a sufficient density to achieve approximately 90% confluence the next morning. The transfection reagents are prepared by separately diluting 25 μg of the pcDNA3.1-Gal4-FXR plasmid into 1.87 mL of Opti-MEM (Thermo-Fisher), and 40 μL of Lipofectamine 2000 (Thermo-Fisher) into 1.87 mL of Opti-MEM, and then adding the diluted DNA solution into the diluted Lipofectamine 2000 solution and incubating at room temperature for 15-20 minutes. The mixture is further diluted with 10 mL of a solution comprised of DMEM, 10% cs-FBS, and 1% P/S immediately prior to transferring to the cells. The maintenance culture media is aspirated from the cells and the final transfection mixture is added before the cells are incubated overnight at 37° C. in a humidified 5% CO2 atmosphere. This protocol can be scaled up, and the transiently transfected cells can be cryopreserved in an assay-ready format.
For compound testing, 100 nL of the compounds (serial dilutions in DMSO) are dispensed with an Echo acoustic dispenser (Labcyte) into the wells of a Corning/Costar clear bottom 384-well white plate. The transfected cells are harvested, counted, and diluted such that 10-25,000 cells in 25 μL are plated into each well of the 384-well compound assay plate. The compound-treated cells are incubated overnight at 37° C. in a humidified 5% CO2 atmosphere.

SMILES	EC50 [nM]
O=C(O)c1cc(F)c2nc(N3CC4(C=C(c5c(-c6ccccc6C(F)(F)F)noc5C5CC5)C4)C3)sc2c1 [Example 34, 2-(6-(5-cyclopropyl-3-(2-(trifluoromethyl)phenyl)isoxazol-4-yl)-2-azaspiro[3.3]hept-5-en-2-yl)-4-fluorobenzo[d]thiazole-6-carboxylic acid]	400
O=C(O)c1ccc(N2CCC3(C=C(c4c(-c5ccccc5OC(F)(F)F)noc4C4CC4)C3)CC2)nc1 [Example 21, 6-(2-(5-Cyclopropyl-3-(2-(trifluoromethoxy)phenyl)isoxazol-4-yl)-7-azaspiro[3.5]non-1-en-7-yl) nicotinic acid]	770
O=C(O)c1cc(F)c2nc(OC3CCC4(C=C(c5c(-c6c(Cl)cccc6Cl)noc5C5CC5)C4)CC3)sc2c1 (stereo not drawn) [Example 209, 2-((2-(5-Cyclopropyl-3-(2,6-dichlorophenyl)isoxazol-4-yl)spiro[3.5]non-1-en-7-yl)oxy)-4-fluorobenzo[d]thiazole-6-carboxylic acid]	1280
O=C(O)c1ccc(N2CCC3(C=C(c4c(-c5c(Cl)cc(F)cc5Cl)noc4C4CC4)C3)CC2)nc1 [Example 67, 6-(2-(5-Cyclopropyl-3-(2,6-dichloro-4-fluorophenyl)isoxazol-4-yl)-7-azaspiro[3.5]non-1-en-7-yl)nicotinic acid]	493
O=C(O)c1cc(F)c2nc(OC3CCC4(CC3)CC(O)(c3c(-c5c(Cl)cccc5Cl)noc3C3CC3)C4)sc2c1 (stereo not drawn) [Example 205, 2-((2-(5-Cyclopropyl-3-(2,6-dichlorophenyl)isoxazol-4-yl)-2-hydroxyspiro[3,5]nonan-7-yl)oxy)-4-fluorobenzo[d]thiazole-6-carboxylic acid]	2620
COc1cc(C(=O)O)nc2ccc(N3CCC4(C=C(c5c(-c6cccnc6C(F)(F)F)noc5C5CC5)C4)CC3)cc12 [Example 144, 6-(2-(5-Cyclopropyl-3-(2-(trifluoromethyl)pyridin-3-yl)isoxazol-4-yl)-7-azaspiro[3.5]non-1-en-7-yl)-4-methoxyquinoline-2-carboxylic acid]	156
O=C(O)c1cc(F)c2nc(N3CCC4(C=C(c5c(-c6c(Cl)cc(F)cc6Cl)noc5C5CC5)C4)CC3)sc2c1 [Example 48, 2-(2-(5-Cyclopropyl-3-(2,6-dichloro-4-fluorophenyl)isoxazol-4-yl)-7-azaspiro[3.5]non-1-en-7-yl)-4-fluorobenzo[d]thiazole-6-carboxylic acid]	115
O=C(O)c1ccc2nc(N3CCC4(C=C(c5c(-c6c(Cl)cccc6Cl)noc5C5CC5)C4)CC3)ccc2c1 [Example 122, 2-(2-(5-Cyclopropyl-3-(2,6-dichlorophenyl)isoxazol-4-yl)-7-azaspiro[3.5]non-1-en-7-yl)quinoline-6-carboxylic acid]	40
O=C(NS(=O)(=O)C1CC1)c1ccc2cc(N3CCC4(C=C(c5c(-c6c(Cl)cccc6Cl)noc5C5CC5)C4)CC3)ccc2n1 [Example 193, 6-(2-(5-Cyclopropyl-3-(2,6-dichlorophenyl)isoxazol-4-yl)-7-azaspiro[3.5]non-1-en-7-yl)-N-(cyclopropylsulfonyl)quinoline-2-carboxamide]	178
O=C(O)c1cccc(COC2CCC3(CC2)CC(O)(c2c(-c4c(Cl)cccc4Cl)noc2C2CC2)C3)c1 (stereo not drawn) [Example 206, 3-(((2-(5-Cyclopropyl-3-(2,6-dichlorophenyl)isoxazol-4-yl)-2-hydroxyspiro[3.5]nonan-7-yl)oxy)methyl)benzoic acid]	4710
O=C(O)c1ccc(N2CCC3(C=C(c4c(-c5ccccc5Cl)noc4C4CC4)C3)CC2)cc1 [Example 14, 4-(2-(3-(2-Chlorophenyl)-5-cyclopropylisoxazol-4-yl)-7-azaspiro[3.5]non-1-en-7-yl)benzoic acid]	885
O=C(O)c1cc(OCCO)c2cc(N3CCC4(C=C(c5c(-c6c(Cl)cncc6Cl)noc5C5CC5)C4)CC3)ccc2n1 [Example 142, 6-(2-(5-Cyclopropyl-3-(3,5-dichloropyridin-4-yl)isoxazol-4-yl)-7-azaspiro[3.5]non-1-en-7-yl)-4-(2-hydroxyethoxy)quinoline-2-carboxylic acid]	147
O=C(O)c1ccc(N2CCC3(C=C(c4c(-c5c(Cl)cccc5Cl)noc4C4CC4)C3)CC2)nn1 [Example 5, 6-(2-(5-Cyclopropyl-3-(2,6-dichlorophenyl)isoxazol-4-yl)-7-azaspiro[3.5]non-1-en-7-yl)pyridazine-3-carboxylic acid]	313
O=C(O)c1ccc2cc(N3CCC4(C=C(c5c(-c6ncccc6Cl)noc5C5CC5)C4)CC3)ccc2n1 [Example 152, 6-(2-(3-(3-Chloropyridin-2-yl)-5-cyclopropylisoxazol-4-yl)-7-azaspiro[3.5]non-1-en-7-yl)quinoline-2-carboxylic acid]	1630
O=C(O)c1cc(F)c2nc(N3CCC4(C=C(c5c(-c6c(F)cncc6F)noc5C5CC5)C4)CC3)sc2c1 [Example 68, 2-(2-(5-Cyclopropyl-3-(3,5-difluoropyridin-4-yl)isoxazol-4-yl)-7-azaspiro[3.5]non-1-en-7-yl)-4-fluorobenzo[d]thiazole-6-carboxylic acid]	442
O=C(O)c1cc(C(F)(F)F)c2cc(N3CCC4(C=C(c5c(-c6c(F)cccc6F)noc5C5CC5)C4)CC3)ccc2n1 [Example 82, 6-(2-(5-Cyclopropyl-3-(2,6-difluorophenyl)isoxazol-4-yl)-7-azaspiro[3.5]non-1-en-7-yl)-4-(trifluoromethyl)quinoline-2-carboxylic acid]	356
Cc1cc(C(=O)O)cc2sc(N3CCC4(C=C(c5c(-c6c(Cl)cncc6Cl)noc5C5CC5)C4)CC3)nc12 [Example 61, 2-(2-(5-Cyclopropyl-3-(3,5-dichloropyridin-4-yl)isoxazol-4-yl)-7-azaspiro[3.5]non-1-en-7-yl)-4-methylbenzo[d]thiazole-6-carboxylic acid]	7.2
O=C(O)c1ccc2cc(N3CCC4(C=C(c5c(-c6c(F)cccc6F)noc5C5CC5)C4)CC3)ccc2n1 [Example 151, 6-(2-(5-Cyclopropyl-3-(2,6-difluorophenyl)isoxazol-4-yl)-7-azaspiro[3.5]non-1-en-7-yl)quinoline-2-carboxylic acid]	1990
O=C(O)c1cnc2cc(N3CCC4(C=C(c5c(-c6ccccc6C(F)(F)F)noc5C5CC5)C4)CC3)ccc2n1 [Example 178, 6-(2-(5-Cyclopropyl-3-(2-(trifluoromethyl)phenyl)isoxazol-4-yl)-7-azaspiro[3.5]non-1-en-7-yl)quinoxaline-2-carboxylic acid]	172
O=C(O)c1cnc(N2CCC3(C=C(c4c(-c5c(Cl)cccc5Cl)noc4C4CC4)C3)CC2)cn1 [Example 19, 5-(2-(5-Cyclopropyl-3-(2,6-dichlorophenyl)isoxazol-4-yl)-7-azaspiro[3.5]non-1-en-7-yl) pyrazine-2-carboxylic acid]	110
O=C(O)c1ccc2cc(N3CCC4(C=C(c5c(-c6cccnc6C(F)(F)F)noc5C5CC5)C4)CC3)ccc2n1 [Example 153, 6-(2-(5-Cyclopropyl-3-(2-(trifluoromethyl)pyridin-3-yl)isoxazol-4-yl)-7-azaspiro[3.5]non-1-en-7-yl)quinoline-2-carboxylic acid]	1280
Cc1cc(C(=O)O)nc2ccc(N3CCC4(C=C(c5c(-c6c(Cl)cncc6Cl)noc5C5CC5)C4)CC3)cc12 [Example 87, 6-(2-(5-Cyclopropyl-3-(3,5-dichloropyridin-4-yl)isoxazol-4-yl)-7-azaspiro[3.5]non-1-en-7-yl)-4-methylquinoline-2-carboxylic acid]	76
Cc1cc(N2CCC3(C=C(c4c(-c5c(Cl)cccc5Cl)noc4C4CC4)C3)CC2)ncc1C(=O)O [Example 115, 6-(2-(5-Cyclopropyl-3-(2,6-dichlorophenyl)isoxazol-4-yl)-7-azaspiro[3.5]non-1-en-7-yl)-4-methylnicotinic acid]	132
O=C(O)c1ccc2nc(N3CCC4(C=C(c5c(-c6ccccc6C(F)(F)F)noc5C5CC5)C4)CC3)cnc2c1 [Example 101, 2-(2-(5-Cyclopropyl-3-(2-(trifluoromethyl)phenyl)isoxazol-4-yl)-7-azaspiro[3.5]non-1-en-7-yl)quinoxaline-6-carboxylic acid]	17
